Data taken from patent US20080081823A1, “PIPECOLIC ACID-CONTAINING ANTIDIABETIC COMPOSITIONS” (Ajinomoto Co., Inc., priority 2006, published 2008).

Assays:
normal rats = assay: Oral glucose tolerance test in normal rats provided with pipecolic acid feed for 4 weeks; type: in vivo, Male SD rats; settings: normal SD rats
Excerpt: (a) It was examined whether the increase of the blood glucose after oral injection of glucose to normal rats could be inhibited by providing them with D,L pipecolic acid for 4 weeks.
(b) Male SD rats of 9 weeks old were used to start the experiment.
(c) 24 normal rats were divided into 3 groups (each group consisting of 8 rats) so that their fasting blood glucose and body weights became the same. Feeds adding 0, 0.2 or 0.4% D,L pipecolic acid were provided to each group for 4 weeks. Then, they were fasted for 17 hours, and 10% glucose solution was orally administered to them in its provided amount of 2 g/kg of body weight. At 0, 15, 30, 60, and 120 minutes after the administration, the blood glucose level and blood insulin concentration were measured.
(§1) (b) Preparation of feeds: D,L pipecolic acid (produced by Aldrich) was mixed in small portions with a commercial feed (CRF-1, produced by Oriental Yeast Co., Ltd.) and further mixed together for 5 minutes by using a universal mixer (produced by Dalton Corporation).
(c) Farming rats: 24 (3 experimental sections×8) male SD rats of 7 weeks old were purchased from Charles River Laboratories Japan, Inc. and each was separately farmed in an animal room in a light-dark cycle of 12 hours (7:00 to 19:00) at room temperature of 25° C. After habituation for two weeks, they were divided into 3 groups based on their body weights and fasting blood glucoses, and then the above feeds were provided for 4 weeks. Every Mondays, Wednesdays and Fridays during the period, their body weights and amounts of food ingested were measured, and the feeds were added. 4 weeks later, the oral glucose tolerance test was conducted.
(d) Oral glucose tolerance test: Fasting was started at 17:00 of the day before the test. At 10:00 of the test day, 10% glucose solution was orally administered to the rats in its provided amount of 2 g/kg of body weight. 0, 15, 30, 60, and 120 minutes after the administration, their blood was collected and their blood glucose levels and blood insulin concentrations were measured. The blood glucose levels were promptly measured after the blood collection by using a biochemical auto-analyzer for animals (Fuji DriChem 5500, produced by Fuji Photo Film Co., Ltd.). Further, the collected blood was centrifuged with a centrifuge (himac CF15D, produced by IlitachiKoki Co., Ltd) to take out the blood plasma, and the blood insulin concentrations were measured by using an insulin measurement kit (produced by Morinaga Institute of Biochemical Science, Inc.). FIG. 1A and FIG. 1B indicate the blood glucose transitions and the area under the blood glucose concentration time curve; and FIG. 1C indicates transitions of the blood insulin concentration.

[1] = tested on: model mice with Type II diabetes; assay: Autopsy: weights of epididymal fats and perinephric fats in model mice with Type II diabetes; type: in vivo, Male KK-Ay mice; settings: KK-Ay mice, feed adding 0.8%, autopsy at tenth week
Procedure: (§2) (c) 24 KK-Ay mice were divided into 3 groups based on their body weights, and the blood glucose levels and transitions of the blood insulin concentrations when injected glucose. Feeds adding 0, 0.4 or 0.8% D,L pipecolic acid were provided to each group for 10 weeks. At the second and eighth weeks after starting the test, their blood glucose levels and blood insulin concentrations after oral injection of glucose were measured. At the ninth week, the insulin tolerance test was conducted, and at the tenth week, autopsy was conducted to the samples to measure weights of epididymal fats and perinephric fats.
(§3) (c) Farming mice: 24 male KK-Ay mice of 5 weeks old were purchased from Clea Japan, Inc. and each was separately farmed in an animal room in a light-dark cycle of 12 hours (7:00 to 19:00) at room temperature of 25° C. Then, KK-Ay mice were divided into 3 groups based on their blood glucose levels and blood insulin concentrations measured when giving glucose. […] At the second and eighth weeks, the oral glucose tolerance test was conducted, and their blood glucoses and blood insulin concentrations after oral injection of glucose were measured. […] Then, at the tenth week, autopsy was conducted to the samples, and weights of epididymal fats and perinephric fats were measured to see effects of pipecolic acid on weights of visceral fats. […]

[2] = tested on: model mice with Type II diabetes; assay: Measurement of lipids in the liver of model mice with Type II diabetes; type: in vivo, Male KK-Ay mice; settings: KK-Ay mice
Procedure: (§4) (a) It was examined whether D,L pipecolic acid has an effect on blood and liver lipids of model mice with Type II diabetes.
(§5) (b) Male KK-Ay mice of 6 weeks old were used to start the experiment.
(c) 16 KK-Ay mice were divided into 2 groups based on their body weights. Feeds wherein 0 or 1.6% D,L pipecolic acid was added were provided to each group for 5 weeks. At the fifth week, they were fasted, and their blood was collected and their livers were extracted to measure their fasting blood triglyceride, fasting blood total cholesterol, fasting free fatty acids in the blood, total lipids in the liver, liver triglyceride and liver total cholesterol.
as §1
(§6) (c) Farming mice: 16 (2 experimental sections×8) male KK-Ay mice of 4 weeks old were purchased from Clea Japan, Inc. and each was separately farmed in an animal room in a light-dark cycle of 12 hours (7:00 to 19:00) at room temperature of 25° C. After naturalizing two weeks, they were divided into 2 groups based on their body weights, and the above feeds were provided to them for 5 weeks. Every Mondays, Wednesdays and Fridays during the period, their body weights and amounts of food ingested were measured, and the feeds were added. After 5 weeks passed, they were fasted for 17 hours, their blood was collected and their livers were extracted. The fasting blood triglyceride, fasting blood total cholesterol, fasting free fatty acids in the blood, total lipids in the liver, liver triglyceride and liver total cholesterol were measured by using those samples.
(e) Measurement of lipids in the liver: About 0.5 g of a liver sample is homogenized in 10 mL of chloroform/methanol (2:1) solution, and lipids are extracted overnight. […] 5 mL thereof is concentrated by drying with a centrifugal evaporator, and its weight measured becomes total lipids in the liver. […]

[3] = tested on: model mice with Type II diabetes; assay: Insulin tolerance test in model mice with Type II diabetes; type: in vivo, Male KK-Ay mice; settings: KK-Ay mice, feed adding 0.8%, ninth week, insulin 0.5 U/kg subcutaneous, compared with additive-free group
Procedure: as §2, §3

[4] = tested on: model mice with Type II diabetes; assay: Oral glucose tolerance test in model mice with Type II diabetes; type: in vivo, Male KK-Ay mice; settings: KK-Ay mice; for increase of blood glucose in the oral glucose tolerance test: feed adding 0.4%
Excerpt: (a) It was examined whether D,L pipecolic acid has an effect of improving the pathology of model mice with Type II diabetes.
(b) Male KK-Ay mice, which are the model mice with Type II diabetes, were used to start the experiment.
as §2, with “fats. […]” for “fats.”
(c) Farming mice: 24 male KK-Ay mice of 5 weeks old were purchased from Clea Japan, Inc. and each was separately farmed in an animal room in a light-dark cycle of 12 hours (7:00 to 19:00) at room temperature of 25° C. Then, KK-Ay mice were divided into 3 groups based on their blood glucose levels and blood insulin concentrations measured when giving glucose. […] At the second and eighth weeks, the oral glucose tolerance test was conducted, and their blood glucoses and blood insulin concentrations after oral injection of glucose were measured. […] Then, at the tenth week, autopsy was conducted to the samples, and weights of epididymal fats and perinephric fats were measured to see effects of pipecolic acid on weights of visceral fats.
(d) Oral glucose tolerance test: Fasting was started at 20:00 of the day before the test. […] 0, 30, 60, 120, 180, and 240 minutes after the administration, their blood was collected and their blood glucose levels and blood insulin concentrations were measured. The blood glucose levels were promptly measured after the blood collection by using a biochemical auto-analyzer for animals (Fuji DriChem 5500, produced by Fuji Photo Film Co., Ltd.). […]

obese model rats = assay: Oral glucose tolerance test in obese model rats (high-fat diets) provided with pipecolic acid for 4 weeks; type: in vivo, Male SD rats; settings: 0.2 or 0.4% added to high-fat diets for 4 weeks
Excerpt: (a) It is reported that obese model rats produced by giving high-fat diets express insulin resistance and develop hyperinsulinemia. It was examined whether the increase of the blood glucose and blood insulin concentration after oral injection of glucose to these obese model rats could be inhibited by providing them with D,L pipecolic acid for 4 weeks.
(b) Male SD rats of 6 weeks old were used to start the experiment.
(c) 48 rats were divided into 2 groups so that their fasting blood glucoses and body weights became the same. Normal diets or high-fat diets were given to them for 3 weeks (model production period). […] 0, 15, 30, 60, and 120 minutes after the administration, their blood glucose levels and blood insulin concentrations were measured. […]
(d) Farming rats: 48 (6 experimental sections×8) male SD rats of 5 weeks old were purchased from Charles River Laboratories Japan, Inc. and each was separately farmed in an animal room in a light-dark cycle of 12 hours (7:00 to 19:00) at room temperature of 25° C. […] Every Mondays, Wednesdays and Fridays during all periods starting from the model production period to the end of the test period, their body weights and amounts of food ingested were measured, and the feeds were added. […]

[5] = tested on: model mice with Type II diabetes; assay: Measurement of lipids in the blood of model mice with Type II diabetes; type: in vivo, Male KK-Ay mice; settings: KK-Ay mice, feed adding 1.6% for 5 weeks, fasting, average value
Procedure: as §4, §5
(c) 16 KK-Ay mice were divided into 2 groups based on their body weights. Feeds wherein 0 or 1.6% D,L pipecolic acid was added were provided to each group for 5 weeks. At the fifth week, they were fasted, and their blood was collected and their livers were extracted to measure their fasting blood triglyceride, fasting blood total cholesterol, fasting free fatty acids in the blood, total lipids in the liver, liver triglyceride and liver total cholesterol. […]
as §6, with “After naturalizing two weeks, they were divided into 2 groups based on their body weights, and the above feeds were provided to them for 5 weeks.” left out, “After 5 weeks passed, they were fasted for 17 hours, their blood was collected and their livers were extracted.” left out, “samples. […]” for “samples.”

[6] = feed adding 0.4% for 4 weeks, glucose 2 g/kg oral
[7] = feed adding 1.6% for 5 weeks, average value

`O=C(O)C1CCCCN1` (centres unmarked) [D,L pipecolic acid] was tested, and the “increase of the blood glucose after oral injection of glucose” value (normal rats; feed adding 0.2% for 4 weeks, glucose 2 g/kg oral) was “inhibited”, the blood insulin concentration (normal rats; feed adding 0.2 or 0.4% for 4 weeks, any group and any time period after glucose) was “did not change” and the “blood glucose of 30 and 60 minutes after the administration” value (normal rats; [6]) was “decreased”. The “increase of the blood glucose after oral injection of glucose” value (normal rats; [6]) was “inhibited”, the “weights of epididymal fats” value [1] was “decreased” and the “weights of perinephric fats” value [1] was “decreased”. The “total lipids in the liver” value ([2]; feed adding 0 or 1.6% for 5 weeks) was “significantly correlate with the additive amount of pipecolic acid”, the “decrease of liver total cholesterol as compared with the control group” value [2, 7] was “about 20%” and the “decrease of liver triglyceride as compared with the control group” value [2, 7] was “about 20%”. For the same molecule, the “decrease of the blood glucose after administering insulin” value [3] was “promoted”, the “increase of blood glucose in the oral glucose tolerance test” value ([4]; eighth week) was “no strong effect of inhibiting the increase of the blood glucose was confirmed” and the “increase of blood glucose in the oral glucose tolerance test” value ([4]; second week, compared with additive-free group) was “inhibited”. For the same molecule, the “increase of the blood glucose after injection of glucose” value ([4]; feed adding 0.8%, until the eighth week) was “effect of inhibiting the increase of the blood glucose after injection of glucose was seen”, the blood insulin concentration (obese model rats; after glucose 2 g/kg oral) was “decreased to around the same extent as that of the normal diet groups” and the “increase of the blood glucose after giving glucose” value (obese model rats; glucose 2 g/kg oral) was “hardly inhibited”. For the same molecule, the “decrease of blood triglyceride as compared with the control group” value [5] was “about 20%” and the “decrease of free fatty acids in the blood as compared with the control group” value [5] was “about 20%”.
